Test results published in US10413517B2, “Composition and method for the treatment of neurological diseases and cerebral injury” (UNIVERSITY OF NOTRE DAME DU LAC, priority 2014, dated 2019).

What was measured:
Assay type in all cases: in vivo, mouse
[1] = system: macrophages in the liver; test: Liver macrophage labeling (anti-CTSS immunofluorescence); settings: 100 days, Vo 50 mg/Kg, HPBCD 2000 mg/Kg, TCF
Experimental: (§1) Mice were sacrificed by asphyxiation using CO2. Harvested organs were immersed fixed in 10% neutral buffered formalin (˜4% formaldehyde) for 24 hrs at RT. The organs were subsequently stored in 70% alcohol at RT until transfer to paraffin. Paraffin-embedded tissue sections (4-5 μm) were dewaxed in xylene and alcohol. Calbindin antigen retrieval was done by pre-incubating deparaffinized samples with 0.05% proteinase K (Dako, Germany) in 50 mM Tris-HCl (pH 7.5) for 8 min at RT. CTSS and NPC1 was retrieved by boiling the sections in acidic condition for 30 min. Blocking was done either with 2% goat serum (for calbindin and NPC1) or 2% rabbit serum (for cathepsin S) for 30 min at RT. Sections were incubated with anti-calbindin (1:1000, C9848, Sigma), anti-cathepsin S (20 μg/ml, M-19, Santa Cruz Biotechnology), anti-NPC1 (custom made against human NPC1 protein, 20 μg/ml) overnight at 4° C. The appropriate FITC or TRITC-conjugated secondary IgG (MP Biomedicals, Solon, Ohio, USA) antibodies were used at 1:200 dilution. Sections were subsequently washed with PBS containing DAPI (0.5 μg/ml). Vectashield (Vector laboratories) was used as mounting medium and processed for fluorescence microscopy.
(§2) Tissue sections after IFA and filipin stained fibroblasts were visualized with 40× oil-immersion objective lens (NA 1.35). Filipin stain was visualized using DAPI filter. Digital image collection were performed using an Olympus IX inverted fluorescence microscope and a Photometrix cooled CCD camera (CH350/LCCD) driven by DeltaVision software from Applied Precision (Seattle, Wash., USA). DeltaVision software (softWoRx) was used to deconvolve these images. Images are single optical sections. Images were analyzed using ImageJ software (NIH, MD, USA).

[2] = system: Purkinje cells; test: Calbindin immunofluorescence, Purkinje cell count in cerebellar sections; settings: day 100, once weekly dosing
Experimental: as §1, §2

[3] = system: Npc1^nmf164 mice; test: Survival of drug treated NPC mice (Kaplan-Meier); settings: for median life span: males and females combined, weekly i.p., Vo 50 mg/Kg in PEG, 2×HPBCD 4000 mg/Kg, TCF (Vo 50 mg/Kg+HPBCD 2000 mg/Kg+PEG); for effect on animal survival: i.p. once weekly from day 21
Description: The present study, inter alia, evaluated the efficacy of Vorinostat (Vo) an HDACi for the treatment of Niemann-Pick Type C disease in a mouse model. […] We hypothesized poor solubility, reduced plasma exposure and penetration across the Blood Brain Barrier (BBB) of Vo to be the possible reasons behind its ineffectiveness in the animals. To overcome these limitations, we used HPBCD as an excipient and made a formulation that contained Vo, HPBCD and polyethylene glycol (PEG) and named it Triple combination Formulation (TCF). The effect of TCF was evaluated using different molecular, biochemical, histological and neurobehavioral measures in NPC mice at indicated ages. For survival and neurobehavioral testing 8-10 mice were used in groups injected with drug. At least 6 mice were used in vehicle treated group. End point for survival studies were set at ≥30% weight loss. For molecular, biochemical, histological analyses at least 3-4 mice were used with at least two technical replicates in each assay. Animals were randomly assigned to treatment groups. Equal numbers of males and females were included in each group. Two independent PK experiments in mice were done each containing 5 mice in a group. The reliability and robustness of neurobehavioral scoring system was evaluated by two blinded investigators. Investigators were blinded to the drug injections while assessing the neurobehavioral functions. Determination of Vo in plasma samples were done by blinded investigators at the Metabolite Profiling Facility, Purdue University, IN, USA. Sample sizes were chosen based on previous experience or similar studies conducted by others. All data points were used in the statistical analyses.
Npc1^nmf164, BALB/c strain carrying an aspartate to glycine mutation at position 1005 (D1005G) in Npc1 gene was used as NPC disease model. (Maue, R. A., et al., Hum Mol Genet 21: 730-750 (2012)).When animals were sick and unable to reach the food provided on the holder, regular food (2019 Teklad diet, Harlan Laboratories, Indianapolis, Ind.) was replaced with DietGel 76A (Clear H2O, Portland, Me.). Studies with mice were performed with approval and authorization from the Institutional Animal Care and Use Committee of University of Notre Dame, Indiana, USA.
Vorinostat (50 mg/Kg)—Vorinostat was first dissolved in DMSO (100 mg/ml) and then diluted with 9 volume of Polyethylene Glycol 400 (PEG). This drug solution was named as ‘solution A’. Solution A was diluted with equal volume of water where the final concentration of each component was as follows; Vorinostat, 5 mg/ml; DMSO, 5% and PEG, 45%. Mice were given weekly intraperitoneal (i.p) injections starting at 21 days. Vorinostat (100 mg/Kg)—Vorinostat was first dissolved in DMSO (200 mg/ml) and then mixed with 9 volumes of PEG. Rest of the methods and injections plan were as described above. HPBCD (4000 mg/Kg)—40% HPBCD solution prepared in water. Mice were given weekly i.p injections starting at 7 days. HPBCD (2000 mg/Kg)—20% HPBCD solution prepared in water. Mice were given weekly i.p injections starting at 7 days. TCF (Vorinostat, 50 mg/Kg+HPBCD, 2000 mg/Kg, DMSO, 5%+PEG, 45%)—To prepare the formulation, the ‘solution A’ was first prepared as described above and equal volume of 40% HPBCD solution was slowly layered on top of it. The solution was gently mixed for 10 min at RT on rocker set at medium speed. The final concentration of each component in the formulation was as follows; Vorinsotat, 5 mg/ml; DMSO 5%; PEG, 45%; and HPBCD, 20%. Mice were given two i.p doses of HPBCD (2000 mg/Kg) at 7 and 15 days. Starting from 21 days mice were given weekly i.p injection of TCF. Vehicle control (5% DMSO and 45% PEG)—It was made by mixing 1 volume of DMSO with 9 volume of PEG and then diluted with equal volume of water. Mice were given weekly i.p injection starting from 21 days. All drug solutions were stored at −80° C. Fresh vials of frozen stock were thawed for injection on different days. […]

| Structure (SMILES) | macrophages in the liver (histology) [1] | Purkinje cells in the cerebellum (in words) [2] | Purkinje cells in the cerebellum (in words) ([2]; listed as 2×HPBCD) | increase of survival relative to vorinostat in PEG ([3]; 4000 mg/Kg weekly i.p., 180 vs 134 d) | median life span [3] | macrophages in the liver (histology) ([1]; listed as Vo) | Purkinje cells in the cerebellum (in words) ([2]; listed as Vo) | effect on animal survival ([3]; vorinostat 50 mg/Kg in PEG) | effect on animal survival ([3]; vorinostat 50 mg/Kg in PEG, listed as Vorinostat) | effect on animal survival ([3]; vorinostat 100 mg/Kg in PEG) |
| --- | --- | --- | --- | --- | --- | --- | --- | --- | --- | --- |
| CC(O)COC[C@H]1O[C@@H]2O[C@H]3[C@H](O)[C@@H](O)[C@@H](O[C@H]4[C@H](O)[C@@H](O)[C@@H](O[C@H]5[C@H](O)[C@@H](O)[C@@H](O[C@H]6[C@H](O)[C@@H](O)[C@@H](O[C@H]7[C@H](O)[C@@H](O)[C@@H](O[C@H]8[C@H](O)[C@@H](O)[C@@H](O[C@H]1[C@H](O)[C@H]2O)O[C@@H]8COCC(C)O)O[C@@H]7COCC(C)O)O[C@@H]6COCC(C)O)O[C@@H]5COCC(C)O)O[C@@H]4COCC(C)O)O[C@@H]3COCC(C)O (stereo partly drawn) [HPBCD, 2-Hydroxypropyl-β-cyclodextrin] | Foamy macrophages were barely seen | Few lightly stained Purkinje cells | minor protection of Purkinje cell | increased survival by a third | 180 days | – | – | – | – | – |
| O=C(CCCCCCC(=O)Nc1ccccc1)NO [vorinostat] | also had effect but less so than TCF or HPBCD | no effect | – | – | 134 days | reduced the clustering of macrophages | Loss of Purkinje cells | no significant survival benefit | no significant beneficial effect on animal survival | no survival benefit |
